Test results: the NIST ThermoML archive (doi:10.1016/j.jct.2019.03.007)

Experiment: molar heat capacity at constant pressure
Conditions: 101.33 kPa, Crystal 1, DSC

O=[N+]([O-])[O-].O=[N+]([O-])[O-].[Ca+2] [calcium nitrate]
Conditions | molar heat capacity at constant pressure [J/K/mol]
588.78 K | 184.89
589 K | 182.82
589.78 K | 184.99
590 K | 182.96
590.78 K | 185.09
591 K | 183.01
591.78 K | 185.18
592 K | 183.11
592.78 K | 185.28
593 K | 183.23
593.78 K | 185.38
594 K | 183.3
594.78 K | 185.47
595 K | 183.39
595.78 K | 185.57
596 K | 183.46
596.78 K | 185.66
597 K | 183.59
597.78 K | 185.76
598 K | 183.69
598.78 K | 185.85
599 K | 183.86
599.78 K | 185.95
600 K | 183.94
600.78 K | 186.04
601 K | 184.09
601.78 K | 186.13
602 K | 184.37
602.78 K | 186.22
603 K | 184.48
603.78 K | 186.31
604 K | 184.5
604.78 K | 186.4
605 K | 184.57
605.78 K | 186.49
606 K | 184.76
606.78 K | 186.58
607 K | 184.8
607.78 K | 186.67
608 K | 184.92
608.78 K | 186.76
609 K | 184.95
609.78 K | 186.85
610 K | 185
610.78 K | 186.93
611 K | 185.16
611.78 K | 187.02
612 K | 185.17
612.78 K | 187.1
613 K | 185.37
613.78 K | 187.19
614 K | 185.43
614.78 K | 187.28
615 K | 185.38
615.78 K | 187.37
616 K | 185.46
616.78 K | 187.46
617 K | 185.59
617.78 K | 187.56
618 K | 185.67
618.78 K | 187.65
619 K | 185.79
619.78 K | 187.75
620 K | 185.94
620.78 K | 187.84
621 K | 185.97
621.78 K | 187.94
622 K | 185.98
622.78 K | 188.03
623 K | 186.1
623.78 K | 188.13
624 K | 186.22
624.78 K | 188.23
625 K | 186.24
625.78 K | 188.32
626 K | 186.32
626.78 K | 188.42
627 K | 186.29
627.78 K | 188.51
628 K | 186.36
628.78 K | 188.61
629 K | 186.58
629.78 K | 188.7
630 K | 186.72
630.78 K | 188.8
631 K | 186.76
631.78 K | 188.9
632 K | 186.86
632.78 K | 189
633 K | 186.9
633.78 K | 189.1
634 K | 187.01
634.78 K | 189.2
635 K | 187.13
635.78 K | 189.3
636 K | 187.08
636.78 K | 189.41
637 K | 187.29
637.78 K | 189.51
638 K | 187.33
638.78 K | 189.61
639 K | 187.55
639.78 K | 189.71
640 K | 187.7
640.78 K | 189.82
641 K | 187.58
641.78 K | 189.92
642 K | 187.69
642.78 K | 190.01
643 K | 187.72
643.78 K | 190.11
644 K | 187.93
644.78 K | 190.2
645 K | 188.1
645.78 K | 190.29
646 K | 188.11
646.78 K | 190.39
647 K | 188.18
647.78 K | 190.49
648 K | 188.31
648.78 K | 190.58
649 K | 188.36
649.78 K | 190.69
650 K | 188.66
650.78 K | 190.8
651 K | 188.76
651.78 K | 190.9
652 K | 188.78
652.78 K | 191.02
653 K | 188.91
653.78 K | 191.13
654 K | 188.99
654.78 K | 191.25
655 K | 189.03
655.78 K | 191.36
656 K | 189.11
656.78 K | 191.46
657 K | 189.18
657.78 K | 191.57
658 K | 189.28
658.78 K | 191.67
659 K | 189.43
659.78 K | 191.77
660 K | 189.5
660.78 K | 191.87
661 K | 189.61
661.78 K | 191.96
662 K | 189.79
662.78 K | 192.06
663 K | 189.99
663.78 K | 192.15
664 K | 190.04
664.78 K | 192.23
665 K | 190.04
665.78 K | 192.32
666 K | 190.16
666.78 K | 192.4
667 K | 190.23
667.78 K | 192.49
668 K | 190.12
668.78 K | 192.56
669 K | 190.21
669.78 K | 192.64
670 K | 190.28
670.78 K | 192.72
671 K | 190.33
671.78 K | 192.79
672 K | 190.55
672.78 K | 192.86
673 K | 190.57
673.78 K | 192.94
674 K | 190.71
674.78 K | 193.03
675 K | 190.83
675.78 K | 193.12
676 K | 190.98
676.78 K | 193.22
677 K | 191.19
677.78 K | 193.31
678 K | 191.02
678.78 K | 193.41
679 K | 190.93
679.78 K | 193.5
680 K | 191.02
680.78 K | 193.6
681 K | 191.22
681.78 K | 193.69
682 K | 191.4
682.78 K | 193.78
683 K | 191.29
683.78 K | 193.87
684 K | 191.45
684.78 K | 193.96
685 K | 191.66
685.78 K | 194.03
686 K | 191.74
686.78 K | 194.08
687 K | 191.8
687.78 K | 194.13
688 K | 191.86
688.78 K | 194.18
689 K | 191.92
689.78 K | 194.23
690 K | 192.07
690.78 K | 194.31
691 K | 192.16
691.78 K | 194.39
692 K | 192.21
692.78 K | 194.47
693 K | 192.34
693.78 K | 194.54
694 K | 192.63
694.78 K | 194.6
695 K | 192.66
695.78 K | 194.65
696 K | 192.73
696.78 K | 194.69
697 K | 192.85
697.78 K | 194.72
698 K | 192.92
698.78 K | 194.76
699 K | 192.96
699.78 K | 194.82
700 K | 193.02
700.78 K | 194.88
701 K | 192.93
701.78 K | 194.97
702 K | 193.11
702.78 K | 195.08
703 K | 193.19
703.78 K | 195.21
704 K | 193.21
704.78 K | 195.34
705 K | 193.35
705.78 K | 195.47
706 K | 193.66
706.78 K | 195.61
707 K | 193.92
707.78 K | 195.75
708 K | 194.3
708.78 K | 195.89
709 K | 194.69
709.78 K | 196.04
710 K | 194.54
710.78 K | 196.23
711 K | 194.48
711.78 K | 196.47
712 K | 194.48
712.78 K | 196.76
713 K | 194.61
713.78 K | 197.06
714.78 K | 197.32
715.78 K | 197.53
716.78 K | 197.7
717.78 K | 197.7
718.78 K | 197.46
